How the values were obtained:
M. smegmatis mc^2 155 [1] = assay: Example IV: metabolic PG labeling of Msm with DBCO tags followed by azide fluorophore, flow cytometry; format: cell-based, Mycobacterium smegmatis; details: for cellular fluorescence with azide-modified fluorophore in cells pre-labeled with TetD: 25 μM TetD, fluorophore 1 h at 37° C.
Experimental: General method for bacterial peptidoglycan modification. M. smegmatis strains was inoculated from the glycerol stock to the according media and grown for 24 hours until 0.5-0.6 OD, tetrapeptide probes were added to the media and the cells were grown overnight to achieve stationary phase. The cells were harvested the next day and spun down for 2 min at 3000 g, washed with phosphate buffered saline with tween80 (PBST, PBS with 0.05% tween 80) two times and resuspended in PBST to yield DBCO-modified M. smegmatis cells for further labeling and other experiments.
(§1) DBCOtetra compared with stereo control and single amino acid DBCO. M. smegmatis mc^2 155 was inoculated from stationary phase in 1:100 dilution to a fresh 7H9 media with ADC. 25 μM Dap-DBCO, DBCOtetra or DBCOtera(L) were added to the culture tubes respectively, and the cells were grown for 36-40 hours until stationary phase. The cells were harvested and spun down for 2 min at 3000 g, washed with PBST two times and resuspended in PBST. To a 96-well plate added 100 μL cells pre well with 50 μM FAM-N3 in triplicate. The plate was incubated in 37° C. for 1 h and spun down for 2 min at 3000 g. The supernatant was decanted, and the pellets were washed with PBST for 2 times and fixed with 4% formaldehyde for 15 mins. The samples were then analyzed by Attune™ NxT Acoustic Focusing Cytometer.
as §1, with “Confirm for click chemistry on PG.” for “DBCOtetra compared with stereo control and single amino acid DBCO.”, “μM” for “μM Dap-DBCO,”, “FL-tetra” for “DBCOtera(L)”, “uL” for “μL”, “FAM-N3 or 5-carboxy fluorescein accordingly” for “FAM-N3”
as §1, with “Different concentrations of DBCOtetra.” for “DBCOtetra compared with stereo control and single amino acid DBCO.”, “ADC. 5 μM, 10 μM or” for “ADC.”, “μM” for “μM Dap-DBCO,”, “DBCOtetra” for “DBCOtetra or DBCOtera(L)”, “1h” for “1 h”
Different concentration of FAM-N3 and different time. M. smegmatis mc^2 155 was inoculated from stationary phase in 1:100 dilution to a fresh 7H9 media with ADC. 25 μM DBCOtetra were added to the culture tubes, and the cells were grown for 36-40 hours until stationary phase. The cells were harvested and spun down for 2 min at 3000 g, washed with PBST two times and resuspended in PBST. To a 96-well plate added 100 μL cells pre well with different concentration of FAM-N3 described in the main text, 9 wells each. […] The samples were then analyzed by Attune™ NxT Acoustic Focusing Cytometer. […]

M. smegmatis mc^2 155 [2] = assay: Ldt inhibition with meropenem (incorporation of TetD); format: cell-based, Mycobacterium smegmatis; details: 25 μM TetD, then Fl-az
Experimental: Ldt inhibition with meropenem. M. smegmatis mc^2 155 was inoculated from the glycerol stock by 1 to 1000 dilution to the according media and grown for 24 hours until 0.5-0.6 OD. 25 μM DBCOtetra were added to the media, and the cells were aliquoted to a 96-well culture plate with different concentration of meropenem described in the main text, in triplicate respectively. The cells were then grown overnight to achieve stationary phase. The cells were harvested and spun down for 2 min at 3000 g, washed with PBST two times and resuspended in PBST. To a 96-well plate added 100 uL cells pre well with 50 μM FAM-N3 accordingly transferred from the culture plate. The plate was incubated in 37° C. for 1 h and spun down for 2 min at 3000 g. The supernatant was decanted, and the pellets were washed with PBST for 2 times and fixed with 4% formaldehyde for 15 mins. The samples were then analyzed by Attune™ NxT Acoustic Focusing Cytometer.

[3] = tested on: WT S. aureus (ATCC 25923); format: cell-based, Staphylococcus aureus
Experimental: LB media containing 1 mM of D-LysAz were prepared. S. aureus ATCC 25923 cells supplemented with 0.1 μg/mL tunicamycin, S. aureus ΔtarO cells supplemented with 150 μg/mL spectinomycin, or S. aureus ATCC 25923 cells from overnight cultures were added to the medium (1:100 dilution) and allowed to grow overnight at 37° C. with shaking at 250 rpm. The cells were harvested at 4000 rpm and washed three times at the original culture volume with 1×PBS. Each strain was then treated with the DBCO-pegn-Fl library. All library members were used at a 25 μM concentration for 30 minutes at 37° C. and protected from light. The samples were subsequently harvested at 4000 rpm and washed three times with 1×PBS followed by fixation with 2% formaldehyde in 1×PBS for 30 minutes. The cells were washed once more to remove formaldehyde and then analyzed using the Attune NxT flow cytometer as described above.
LB media containing either 1 mM of D-LysAz, N^ε-azido-L-lysine hydrochloride (L-LysAz), or DMSO were prepared. S. aureus ATCC 25923 cells were added to the LB medium (1:100) and allowed to grow overnight at 37° C. with shaking at 250 rpm. The cells were harvested at 4000 rpm and washed three times at the original culture volume with 1×PBS. […] The cells were washed once more to remove formaldehyde and then analyzed using the Attune NxT flow cytometer as described above.

S. aureus (ATCC 25923) = assay: Flow cytometry of S. aureus treated with thiol PG analogs / cystine enantiomers, then Mal-Fl; format: cell-based, Staphylococcus aureus; details: DTT 5 mM, 25 μM Mal-Fl
Experimental: Flow cytometry analysis of S. aureus treated with thiol analogue panel. LB media containing 1 mM of each respective thiol analogue or dimethyl sulfoxide (DMSO) were prepared. S. aureus ATCC 25923 cells from an overnight culture were added to the medium (1:100 dilution) and allowed to grow overnight at 37° C. with shaking at 250 rpm. The cells were harvested at 4000 rpm and treated with 5 mM dithiothreitol (DTT) at the original culture volume for 5 minutes, to reverse any thiol oxidation that may have occurred. The cells were harvested at 4000 rpm and washed twice at the original culture volume with 1× phosphate-buffered saline (PBS) to remove residual DTT. […] The cells were washed once more to remove formaldehyde and then analyzed using the Attune NxT flow cytometer equipped with a 488 nm laser and 525/40 nm bandpass filter. The data were analyzed using the Attune NXT Software.
Flow cytometry analysis of S. aureus treated with cystine enantiomers. […] The cells were washed once more to remove formaldehyde and then analyzed using the Attune NxT flow cytometer as described above.
The first goal was to identify which cysteine-based label would result in the highest level of thiol handles on the surface of S. aureus. […] Incubation of cells with D-cystine (2) led to a ˜12-fold increase in cellular fluorescence relative to DMSO treated cells. […]

S. aureus (ΔclpX) = assay: DBCO-pegn-Fl library in clpX deletion strain; format: cell-based, Staphylococcus aureus; details: 1 mM D-LysAz, 25 μM probe, versus WT SA546
Experimental: TSB media containing 1 mM of D-LysAz were prepared. S. aureus SA546, ΔclpX, or ΔclpXΔltaS cells from overnight cultures were added to the medium (1:100 dilution) and allowed to grow overnight at 37° C. with shaking at 250 rpm. The cells were harvested at 4000 rpm and washed three times at the original culture volume with 1×PBS. Each strain was then treated with the DBCO-pegn-Fl library. All library members were used at a 25 μM concentration for 30 minutes at 37° C. and protected from light. The samples were subsequently harvested at 4000 rpm and washed three times with 1×PBS followed by fixation with 2% formaldehyde in 1×PBS for 30 minutes. The cells were washed once more to remove formaldehyde and then analyzed using the Attune NxT flow cytometer as described above.

[4] = tested on: WT S. aureus (ATCC 25923); assay: Flow cytometry of D-cystine tagged S. aureus treated with Mal-pegn-Fl and Mal-pron-Fl accessibility probes, with or without tunicamycin; format: cell-based, Staphylococcus aureus; details: 0.001-0.1 μg/mL tunicamycin, 25 μM Mal-Fl
Experimental: (§2) Flow cytometry analysis of S. aureus strains treated with Mal-pegn-Fl and Mal-pron-Fl libraries. LB media containing 1 mM of D-cystine were prepared. S. aureus ATCC 25923, S. aureus ATCC 25923 supplemented with 0.1 μg/mL tunicamycin, S. aureus ΔtarO supplemented with 150 μg/mL spectinomycin, USA300, or S. aureus SCO1 cells from overnight cultures were added to the medium (1:100 dilution) and allowed to grow overnight at 37° C. with shaking at 250 rpm. The cells were harvested at 4000 rpm and treated with 5 mM DTT at the original culture volume for 5 minutes, to reverse any thiol oxidation that may have occurred. The cells were harvested at 4000 rpm and washed twice at the original culture volume with 1×PBS to remove residual DTT. Each strain was then treated with both libraries, Mal-pegn-Fl and Mal-pron-Fl, in parallel. All library members were used at a 25 μM concentration for 30 minutes at 37° C. and protected from light. The samples were subsequently harvested at 4000 rpm and washed three times with 1×PBS followed by fixation with 2% formaldehyde in 1×PBS for 30 minutes. The cells were washed once more to remove formaldehyde and then analyzed using the Attune NxT flow cytometer as described above.
(§3) Tunicamycin scan. […] The cells were washed once more to remove formaldehyde and then analyzed using the Attune NxT flow cytometer as described above.

S. aureus (ΔtarO) = assay: Flow cytometry of D-cystine tagged WTA deletion strain treated with maleimide accessibility probes; format: cell-based, Staphylococcus aureus; details: 0.1 μg/mL tunicamycin, 25 μM Mal-Fl
Experimental: as §2, §3

**Q.** How did the “cellular fluorescence with azide-modified fluorophore in cells pre-labeled with TetD” value (M. smegmatis mc^2 155 [1]) turn out when `[N-]=[N+]=Nc1ccc2c(c1)C1(OC2=O)c2ccc(O)cc2Oc2cc(O)ccc21` [Fl-az, 6-azido-fluorescein] was run?
**A.** The value was “concentration-dependent and time-dependent increase in cellular fluorescence”.

**Q.** How did the “cellular fluorescence with increasing levels of meropenem in the presence of TetD” value (M. smegmatis mc^2 155 [2]) turn out when `C[C@@H](O)[C@H]1C(=O)N2C(C(=O)O)=C(S[C@@H]3CN[C@H](C(=O)N(C)C)C3)[C@H](C)[C@H]12` [meropenem] was run?
**A.** The value was “concentration dependent decrease in cellular fluorescence”.

**Q.** Which “cellular fluorescence with azide-modified fluorophore in cells pre-labeled with TetD” value (M. smegmatis mc^2 155 [1]) does the source give for `[N-]=[N+]=Nc1ccc2c(c1)C1(OC2=O)c2ccc(N)cc2Oc2cc(N)ccc21` [rhodamine 110, 6-azido-rhodamine 110] here?
**A.** Its value is “higher than Fl-az, albeit with a lower fold increase over unlabeled cells”.

**Q.** For `Cl.[N-]=[N+]=NNCCCC[C@H](N)C(=O)O` [L-LysAz, N^ε-azido-L-lysine hydrochloride], which “cellular fluorescence after DBCO-Fl” value [3] is on record?
**A.** The value was “background fluorescence levels”.

**Q.** For `N[C@@H](CSSC[C@H](N)C(=O)O)C(=O)O` [L-cystine], which “cellular fluorescence compared to DMSO treated cells” value (S. aureus (ATCC 25923); 1 mM overnight) is on record?
**A.** Its value is “minimal increase”.

**Q.** How did the “increase in cellular fluorescence on co-incubation of cells with tunicamycin” value [3] turn out when `O=C(CCC(=O)N1Cc2ccccc2C#Cc2ccccc21)NCCOCCOCCOCCOCCOCCOCCOCCOCCOCCNC(=S)Nc1ccc(-c2c3ccc(=O)cc-3oc3cc(O)ccc23)c(C(=O)O)c1` [DBCO-peg9-Fl] was run?
**A.** Its value is ~17 fold.

**Q.** How did the “permeation of probe on deletion of clpX alone” value (S. aureus (ΔclpX)) turn out when `O=C1OC2(c3ccc(O)cc3Oc3cc(O)ccc32)c2ccc(NC(=S)NCCC(=O)N3Cc4ccccc4C#Cc4ccccc43)cc21` [DBCO-Fl, fluorescein-DBCO] was run?
**A.** The value was “did not lead to an increase”.

**Q.** For `N[C@H](CSSC[C@@H](N)C(=O)O)C(=O)O` [D-cystine], which “increase in cellular fluorescence relative to DMSO treated cells” value (S. aureus (ATCC 25923); 1 mM PG analog overnight) is on record?
**A.** The value was ~12 fold.

**Q.** Which results are given for tunicamycin?
**A.** effect of tunicamycin treatment on cellular fluorescence [4]: higher overall levels of cellular fluorescence in a concentration dependent manner; effect of tunicamycin on ΔtarO cells (S. aureus (ΔtarO)): minimal additive effect

**Q.** How did the “PG labeling levels (fluorescence) above vehicle treated cells” value (M. smegmatis mc^2 155 [1]; Msm, metabolic label then Fl-az) turn out when `N[C@H](CNC(=O)CCC(=O)N1Cc2ccccc2C#Cc2ccccc21)C(=O)O` [D-DapD] was run?
**A.** The value was ~40 fold.
